# Measurements published in patent US20150056702A1, “METHOD AND KIT FOR CULTURING STEM CELLS” (China Medical University, priority 2013, published 2015).
# Columns and labels:
# Type in all cases: cell-based, mouse
# Oct4 = experiment: Real-time PCR, Oct4 gene expression in ES cells; details: for Oct4 gene expression level: ES cells, control group = 100%
# Procedure: (§1) The following steps were conducted in order to culture ES cells: • (1) preparing a stem cell medium: DMEM+15% heat-inactivated FBS+NEAA (0.1 mM)+L-glutamine (2 mM)+β-mercaptoethanol (0.2 mM); • (2) preparing a BP-containing solution: dissolving BP into DMSO to form a BP-containing solution (100 mg/ml), and storing the solution at −20° C.; • (3) adding different amounts of the BP-containing solution in step (2) into the stem cell medium in step (1) to form different BP-containing mediums, wherein the amount of BP were about 5, 10, 20 or 40 μg per milliliter of the stem cell medium respectively (i.e. the experimental group mediums: BP5, BP10, BP20 and BP40); and • (4) using the BP-containing medium of in step (3) to culture a ES cell (retrieved from the embryos in the blastula stage of 129sv/J mice) at 37° C., 5% CO2 and 95% humidity on the feeder cells provided by Example 1.
# (§2) An experimental group medium (BP5, BP10, BP20 or BP40) and a control group medium (without BP) were added respectively to perform the following steps. ES cells were cultured with an initial density of 1×10^4 per well in a 6-well culture dish. The medium was removed until the cells growth to be about 70 to 80% confluence, and then 1 ml TRIzol (Invitrogen) was added into each well. The cells were incubated for 5 minutes, and then was scraped by a spatula and placed into a 1.5 ml microtube to be lysed adequately. Chloroform (0.2 ml) was added into the microtubes. The mixture was shaken up and down for 15 seconds, and then incubated at room temperature for 2 to 3 minutes. Thereafter, the mixture was centrifuged at 12000 rpm at 4° C. for 15 minutes, and the supernatant was removed into another 1.5 ml microtube and isopropanol (0.5 ml) was added into the microtube with well mixing. The mixture was incubated at room temperature for 10 minutes and then centrifuged at 12000 rpm at 4° C. for 10 minutes. The supernatant was then removed. One ml of 70% ethanol containing DEPC.H2O was used to wash the remaining sediment. The sediment was centrifuged at 7500 rpm at 4° C. for 5 minutes. The supernatant was removed. The sediment was dried by vacuum suction. The dried samples were dissolved in about 0.01 to 0.02 ml of DEPC.H2O to obtain the experimental group RNA and control group RNA. Both groups were stored at −80° C.
# (§3) The OD value of RNA samples in both groups obtained from the above Experiment I were measured at a wavelength of 260 nm (RNA: OD260=1 for a 40 μg/mL solution). Each RNA sample (2 μl) was added with RNA-free water until the volume of the sample reached 10 μl. Two μl oligo (dT) (100 μg/ml) was added into each sample, and the samples were incubated at 65° C. for 5 minutes. Then, the samples were immediately placed on ice and spun down. Next, 6.5 μl of a reaction solution [4 μl of 5× buffer+1 μl of 0.1 M DTT+1 μl of RNase out+0.5 μl of SSIII (Invitrogen)] was added into each of the samples, and the samples were incubated at 50° C. for about 30 to 60 minutes and at 75° C. for 15 minutes to obtain the experimental group cDNA and control group cDNA. Both groups were stored at −80° C.
# (§4) This experiment was used to detect the expression levels of ES cell-related genes, i.e., Oct4 and Sox2, etc. […] The cycle threshold (CT) values were measured.
# iPS cells [1] = experiment: Embryoid body formation and differentiation of the generated iPS cells; details: iPS cells (T+P), BP10 medium, Tuj1, α-SMA, Gata4 staining
# Procedure: (§5) An experimental group medium (BP10) was used to culture ES cells with an initial density of 1×10^4 per well in a 6-well culture dish. The ES cells were passaged 3 times and incubated for another 2 to 3 days in the Ultra Low Cluster Plate (Costar) containing the embryoid body formation medium [DMEM+20% FBS+β-mercaptoethanol (1 mM)+1% L-glutamine+1% NEAA], and then the embryoid body formation was observed. The embryoid bodies were placed into another 24-well culture dish (5 to 6 embryoid bodies/well) and incubated for another 3 days. Next, immunofluorescence staining was conducted to detect cells with an anti-Tuj1 antibody (ectoderm marker), an anti-α-SMA antibody (mesoderm marker) and an anti-Gata4 antibody (endoderm marker).
# In addition, the iPS cells (T+P) were cultured by the steps shown in Example 7 to observe the embryoid body formation and differentiation.
# iPS cells [2] = experiment: AP staining and immunofluorescence staining of the generated iPS cells; details: experimental group (T+P), BP10 medium
# Procedure: The AP activity of the obtained iPS cells was determined by AP staining. The expression levels of Nanog and SSEA1 as well as the embryoid body formation and differentiation were observed by immunofluorescence staining.
# ES cells = experiment: Embryoid body formation and differentiation of ES cells; details: BP10 medium, ES cells passaged 3 times, Tuj1, α-SMA, Gata4 staining
# Procedure: The embryoid body formation and differentiation were also observed by immunofluorescence staining to observe the effect of BP on maintaining the pluripotency of ES cells.
# as §5
# Sox2 = experiment: Real-time PCR, Sox2 gene expression in ES cells; details: for Sox2 gene expression level: ES cells, control group = 100%
# Procedure: as §1, §2, §3, §4
# [3] = BP10 medium (about 10 μg BP/ml)
# [4] = BP20 medium (about 20 μg BP/ml)
# [5] = BP40 medium (about 40 μg BP/ml)
# [6] = BP-containing ES cell culture medium vs control group, result in words
smiles,measurement,setting,value
"CCCC=C1OC(=O)c2ccccc21 [BP, n-butylidenephthalide]",Oct4 gene expression level,Oct4; BP5 medium (about 5 μg BP/ml),119%
same,Oct4 gene expression level,Oct4; [3],419%
same,Oct4 gene expression level,Oct4; [4],258%
same,Oct4 gene expression level,Oct4; [5],144%
same,gene expression level of Oct4,Oct4; [6],significantly up-regulated
same,embryoid body formation and differentiation of the iPS cells,iPS cells [1],can differentiate into three germ layer cells
same,"expression levels of AP, Nanog and SSEA1 in the obtained iPS cells",iPS cells [2],"higher expression levels of AP, Nanog, and SSEA1"
same,embryoid body formation and differentiation,ES cells,form an embryoid body and further differentiate into all three germ layer cells
same,Sox2 gene expression level,Sox2; BP5 medium (about 5 μg BP/ml),91%
same,Sox2 gene expression level,Sox2; [3],245%
same,Sox2 gene expression level,Sox2; [4],210%
same,Sox2 gene expression level,Sox2; [5],140%
same,gene expression level of Sox2,Sox2; [6],significantly up-regulated
